Measurements reported in patent publication US6723512B2, “METHODS USING GENETIC PACKAGE DISPLAY FOR DETECTING AND IDENTIFYING PROTEIN-PROTEIN INTERACTIONS THAT FACILITATE INTERNALIZATION AND TRANSGENE EXPRESSION AND CELLS OR TISSUES COMPETENT FOR THE SAME AND METHODS FOR EVOLVING GENE DELIVERY VECTORS” (priority 1997, dated 2004).

Legend:
COS cells [1] = experiment: Enhancement of EGF-phage transduction by heat shock and/or camptothecin; format: cell-based
Protocol: The effects of heat shock and another genotoxic treatment, camptothecin were tested. Camptothecin is a type I topoisomerase inhibiter that produces DNA strand breaks. Camptothecin is found to enhance transduction efficiency up to 2 fold at 0.1 μM but was inhibitory at higher concentrations (data not shown). EGF displaying phage (MG4-EGF vector) were incubated with COS cells for 24 hours at which time the cells were either not further treated, subjected to a four hour heat shock (42.5° C.), or treated with 0.1 μM camptothecin for four hours. GFP autofluorescent cells were counted at 72 hours after addition of phage.

COS cells [2] = experiment: Transduction of COS cells by peptide display phage (second generation screen); format: cell-based; conditions: overnight incubation, GFP cells at 72 hours, FL5 versus FN5A or FN5B, FIG. 5
Protocol: Oligonucleotides encoding the 3 peptides are inserted into the MEGFP vector as fusions to the pIII coat protein. The resulting phage are used to transfect COS cells. Phage are added to cells and incubated overnight at 37° C. in medium with 10% fetal calf serum. The cells are washed to remove unbound phage and returned to the incubator. Transduction is assessed by counting GFP expressing autofluorescent cells at 72 hours after the addition of phage.

Compound | enhancement of targeted phage mediated transduction by camptothecin (COS cells [1]; EGF phage 24 hours, then 0.1 μM camptothecin four hours, GFP cells at 72 hours, FIG. 14) | effect of combined heat shock and camptothecin over either treatment alone (COS cells [1]; FIG. 14) | enhancement of transduction efficiency (COS cells [1]; camptothecin 0.1 μM, data not shown) | effect on transduction at higher concentrations (COS cells [1]; concentrations higher than 0.1 μM, data not shown) | transduction efficiency compared among peptide display phage (COS cells [2])
CC[C@@]1(O)C(=O)OCc2c1cc1n(c2=O)Cc2cc3ccccc3nc2-1 [Camptothecin] | ~2 fold | modest synergistic increase | up to 2 fold | inhibitory | 
FVPDPYRKSR [FL5] |  |  |  |  | greater transduction efficiency
